Reference: ChEMBL document CHEMBL1121950, “Species- or isozyme-specific enzyme inhibitors. 9. Selective effects in inhibitions of rat pyruvate kinase isozymes by adenosine 5'-diphosphate derivatives” (J Med Chem, 1982)

How the values were obtained:
[1] = biological target: Pyruvate kinase PKLR (Rattus norvegicus) (UniProt P12928); assay: Relative inhibitory potency as ratio of kidney and liver pyruvate kinases
[2] = biological target: Pyruvate kinase PKLR (Rattus norvegicus) (UniProt P12928); assay: Ratio of Km(ADP)/Ki or Km for rat liver pyruvate kinase
[3] = organism: Rattus norvegicus; assay: Relative inhibitory potency as ratio of muscle and liver pyruvate kinases
[4] = biological target: Pyruvate kinase PKM (Rattus norvegicus) (UniProt P11980); assay: Ratio of Km(ADP)/Ki or Km for rat muscle pyruvate kinase
Pyruvate kinase PKM (Rattus norvegicus), sequence (P11980 whole entry): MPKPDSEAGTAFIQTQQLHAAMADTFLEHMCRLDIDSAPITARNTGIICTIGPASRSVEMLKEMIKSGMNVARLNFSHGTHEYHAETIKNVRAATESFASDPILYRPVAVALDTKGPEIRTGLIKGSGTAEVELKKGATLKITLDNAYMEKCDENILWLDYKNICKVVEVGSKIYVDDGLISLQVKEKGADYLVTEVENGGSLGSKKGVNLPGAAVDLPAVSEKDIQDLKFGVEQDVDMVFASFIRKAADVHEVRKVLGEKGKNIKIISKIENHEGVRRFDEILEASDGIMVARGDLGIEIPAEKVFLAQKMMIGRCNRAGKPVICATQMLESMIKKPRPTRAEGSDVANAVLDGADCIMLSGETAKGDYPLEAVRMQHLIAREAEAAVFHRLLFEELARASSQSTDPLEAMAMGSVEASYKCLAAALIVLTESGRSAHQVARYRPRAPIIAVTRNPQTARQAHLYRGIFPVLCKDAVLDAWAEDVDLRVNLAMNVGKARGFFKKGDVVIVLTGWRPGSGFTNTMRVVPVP

[5] = organism: Rattus norvegicus; assay: Relative half maximal velocity of Pyruvate kinase to Phosphoenolpyruvate was determined
[6] = biological target: Pyruvate kinase PKM (Rattus norvegicus) (UniProt P11980); assay: (§1) Relative half maximal velocity of Pyruvate kinase and Phosphoenolpyruvate
[7] = biological target: Pyruvate kinase PKLR (Rattus norvegicus) (UniProt P12928); assay: as §1
[8] = biological target: Pyruvate kinase PKM (Rattus norvegicus) (UniProt P11980); assay: Ratio of Km(ADP)/Ki or Km for rat muscle pyruvatre kinase; (inhibitory potency at 2.35 mM)
[9] = biological target: Pyruvate kinase PKM (Rattus norvegicus) (UniProt P11980); assay: as §1; remark: listed apart in the source
[10] = system: Nc1ncnc2c1ncn2[C@@H]1O[C@H](COP(=O)(O)OP(=O)(O)O)[C@@H](O)[C@H]1O; assay: (§2) Michaelis-Menten constant for inhibition of pyruvate kinase obtained from rat muscle (PK-M) was determined using ADP as competitive inhibitor
[11] = system: CNc1nc(N)c2ncn(C3O[C@H](COP(=O)(O)OP(=O)(O)O)[C@@H](O)[C@H]3O)c2n1; assay: as §2
[12] = system: Nc1ncnc2c1nc(Br)n2[C@@H]1O[C@H](COP(=O)(O)OP(=O)(O)O)[C@@H](O)[C@H]1O; assay: as §2
[13] = system: CSc1nc(N)c2ncn([C@@H]3O[C@H](COP(=O)(O)OP(=O)(O)O)[C@@H](O)[C@H]3O)c2n1; assay: as §2
[14] = system: C=CC[C@]1(COP(=O)(O)OP(=O)(O)O)OC(n2cnc3c(N)ncnc32)[C@H](O)[C@@H]1O; assay: as §2
[15] = system: CC(=O)N(C)CCCCN(C)c1ncnc2c1ncn2[C@@H]1O[C@H](COP(=O)(O)OP(=O)(O)O)[C@@H](O)[C@H]1O; assay: as §2
[16] = system: C[C@H](OP(=O)(O)OP(=O)(O)O)[C@H]1OC(n2cnc3c(N)ncnc32)[C@H](O)[C@@H]1O; assay: as §2
[17] = system: CNc1nc2c(N)ncnc2n1C1O[C@H](COP(=O)(O)OP(=O)(O)O)[C@@H](O)[C@H]1O; assay: as §2
[18] = system: Nc1nc(N)c2ncn(C3O[C@H](COP(=O)(O)OP(=O)(O)O)[C@@H](O)[C@H]3O)c2n1; assay: as §2
[19] = system: CO[C@@H]1[C@H](O)[C@@H](COP(=O)(O)OP(=O)(O)O)O[C@H]1n1cnc2c(N)ncnc21; assay: as §2
[20] = system: Nc1ncnc2c1ncn2[C@@H]1O[C@H](COP(=O)(O)OP(=O)(O)O)[C@@H](O)[C@H]1O; assay: (§3) Michaelis-Menten constant for inhibition of pyruvate kinase obtained from rat liver (PK-L) was determined using ADP as competitive inhibitor
[21] = system: CNc1nc(N)c2ncn(C3O[C@H](COP(=O)(O)OP(=O)(O)O)[C@@H](O)[C@H]3O)c2n1; assay: as §3
[22] = system: Nc1ncnc2c1nc(Br)n2[C@@H]1O[C@H](COP(=O)(O)OP(=O)(O)O)[C@@H](O)[C@H]1O; assay: as §3
[23] = system: CSc1nc(N)c2ncn([C@@H]3O[C@H](COP(=O)(O)OP(=O)(O)O)[C@@H](O)[C@H]3O)c2n1; assay: as §3
[24] = system: C=CC[C@]1(COP(=O)(O)OP(=O)(O)O)OC(n2cnc3c(N)ncnc32)[C@H](O)[C@@H]1O; assay: as §3
[25] = system: CC(=O)N(C)CCCCN(C)c1ncnc2c1ncn2[C@@H]1O[C@H](COP(=O)(O)OP(=O)(O)O)[C@@H](O)[C@H]1O; assay: as §3
[26] = system: C[C@H](OP(=O)(O)OP(=O)(O)O)[C@H]1OC(n2cnc3c(N)ncnc32)[C@H](O)[C@@H]1O; assay: as §3
[27] = system: CNc1nc2c(N)ncnc2n1C1O[C@H](COP(=O)(O)OP(=O)(O)O)[C@@H](O)[C@H]1O; assay: as §3
[28] = system: Nc1nc(N)c2ncn(C3O[C@H](COP(=O)(O)OP(=O)(O)O)[C@@H](O)[C@H]3O)c2n1; assay: as §3
[29] = system: CO[C@@H]1[C@H](O)[C@@H](COP(=O)(O)OP(=O)(O)O)O[C@H]1n1cnc2c(N)ncnc21; assay: as §3

Pyruvate kinase PKLR (Rattus norvegicus), P12928, sequence (P12928 whole entry): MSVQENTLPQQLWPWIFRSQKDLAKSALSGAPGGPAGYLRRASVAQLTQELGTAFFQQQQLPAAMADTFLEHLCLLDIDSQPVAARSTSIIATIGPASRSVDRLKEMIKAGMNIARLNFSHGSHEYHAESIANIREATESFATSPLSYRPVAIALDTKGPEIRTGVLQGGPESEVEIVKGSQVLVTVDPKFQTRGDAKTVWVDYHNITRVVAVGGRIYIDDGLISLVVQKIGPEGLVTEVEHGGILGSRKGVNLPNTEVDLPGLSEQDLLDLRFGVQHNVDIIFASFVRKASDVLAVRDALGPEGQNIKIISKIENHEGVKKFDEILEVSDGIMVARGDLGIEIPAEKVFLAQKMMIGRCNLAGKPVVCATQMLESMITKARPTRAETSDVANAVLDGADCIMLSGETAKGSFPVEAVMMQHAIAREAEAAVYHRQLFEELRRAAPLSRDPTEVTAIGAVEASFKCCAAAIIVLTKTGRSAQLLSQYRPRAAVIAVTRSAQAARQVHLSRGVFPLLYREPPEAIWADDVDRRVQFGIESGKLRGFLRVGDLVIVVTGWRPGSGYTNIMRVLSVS
Pyruvate kinase PKLR (Rattus norvegicus), sequence (P12928 whole entry): as above
Pyruvate kinase PKM (Rattus norvegicus), P11980, sequence (P11980 whole entry): as the sequence (P11980 whole entry) above

| Compound | Relative inhibitory potency [1] | Inhibitory potency [2] | Relative inhibitory potency [3] | Inhibitory potency [4] | Relative Vmax [5] | Relative Vmax [6] | Relative Vmax [7] | further results |
| --- | --- | --- | --- | --- | --- | --- | --- | --- |
| Nc1nc(N)c2ncn(C3O[C@H](COP(=O)(O)OP(=O)(O)O)[C@@H](O)[C@H]3O)c2n1 (some centres undefined) | 0.61 | 3.3 | 0.61 | 2 | 90 | 77 | 95 |  |
| CC(=O)N(C)CCCCN(C)c1ncnc2c1ncn2[C@@H]1O[C@H](COP(=O)(O)OP(=O)(O)O)[C@@H](O)[C@H]1O | 0.67 | 0.43 | 0.33 | 0.14 |  |  |  |  |
| CCCNc1nc2c(N)ncnc2n1C1O[C@H](COP(=O)(O)OP(=O)(O)O)[C@@H](O)[C@H]1O (some centres undefined) |  | 0.19 | 3.1 |  | 0 | 0 |  | Inhibitory potency [8]: 0.58 |
| C=CC[C@]1(COP(=O)(O)OP(=O)(O)O)OC(n2cnc3c(N)ncnc32)[C@H](O)[C@@H]1O (some centres undefined) |  |  |  |  | 11 | 7 | 52 |  |
| CCSc1nc2c(N)ncnc2n1C1O[C@H](COP(=O)(O)OP(=O)(O)O)[C@@H](O)[C@H]1O (some centres undefined) | 3.6 | 0.036 | 3.9 | 0.14 | 0 | 0 | 0 |  |
| CNc1nc2c(N)ncnc2n1C1O[C@H](COP(=O)(O)OP(=O)(O)O)[C@@H](O)[C@H]1O (some centres undefined) | 0.45 | 1.9 | 0.49 | 0.93 | 49 | 55 | 40 |  |
| CNc1nc(N)c2ncn(C3O[C@H](COP(=O)(O)OP(=O)(O)O)[C@@H](O)[C@H]3O)c2n1 (some centres undefined) | 1.4 | 2.5 | 1.1 | 2.7 | 85 | 77 | 86 |  |
| CSc1nc(N)c2ncn([C@@H]3O[C@H](COP(=O)(O)OP(=O)(O)O)[C@@H](O)[C@H]3O)c2n1 | 1.12 | 5 | 0.94 | 4.7 | 67 | 77 | 72 |  |
| CO[C@@H]1[C@H](O)[C@@H](COP(=O)(O)OP(=O)(O)O)O[C@H]1n1cnc2c(N)ncnc21 | 1.04 | 0.86 | 0.86 | 0.74 | 94 | 90 | 100 |  |
| CO[C@H]1[C@@H](O)[C@H](n2cnc3c(N)ncnc32)O[C@@H]1COP(=O)(O)OP(=O)(O)O | 7.6 | 0.0094 | 6 | 0.056 | > 0 | > 0 | > 0 |  |
| CCNc1nc2c(N)ncnc2n1C1O[C@H](COP(=O)(O)OP(=O)(O)O)[C@@H](O)[C@H]1O (some centres undefined) | 1.2 | 0.14 | 7.1 | 1 | 0.7 | < 1 | < 1 |  |
| Nc1ncnc2c1nc(Br)n2[C@@H]1O[C@H](COP(=O)(O)OP(=O)(O)O)[C@@H](O)[C@H]1O | 1.3 | 0.13 | 1.4 | 0.18 |  | 6 | 14 | Relative Vmax [9]: 6 |
| CSc1nc2c(N)ncnc2n1C1O[C@H](COP(=O)(O)OP(=O)(O)O)[C@@H](O)[C@H]1O (some centres undefined) | 2.5 | 0.04 | 3 | 0.12 | 0 | 0 | 0 |  |
| Pyruvate kinase PKM (Rattus norvegicus), P11980 |  |  |  |  |  |  |  | Km [10]: 520 µM; Km [11]: 190 µM; Km [12]: 2900 µM; Km [13]: 110 µM; Km [14]: 1300 µM; Km [15]: 3600 µM; Km [16]: 2700 µM; Km [17]: 560 µM; Km [18]: 260 µM; Km [19]: 700 µM |
| C[C@@H](OP(=O)(O)OP(=O)(O)O)[C@H]1OC(n2cnc3c(N)ncnc32)[C@H](O)[C@@H]1O (some centres undefined) | 1.1 | 0.056 | 2.1 | 0.12 | > 0 | > 0 | > 0 |  |
| Pyruvate kinase PKLR (Rattus norvegicus), P12928 |  |  |  |  |  |  |  | Km [20]: 300 µM; Km [21]: 120 µM; Km [22]: 2300 µM; Km [23]: 61 µM; Km [24]: 530 µM; Km [25]: 700 µM; Km [26]: 1300 µM; Km [27]: 160 µM; Km [28]: 90 µM; Km [29]: 350 µM |
| Nc1ncnc2c1ncn2[C@@H]1O[C@H](COP(=O)(O)OP(=O)(O)O)[C@@H](O)[C@H]1O |  |  |  |  | 100 | 100 | 100 |  |
| CC1O[C@@H]2[C@H](O1)[C@@H](COP(=O)(O)OP(=O)(O)O)O[C@H]2n1cnc2c(N)ncnc21 (some centres undefined) |  | 0.14 | 2.3 | 0.325 |  | 0 |  | Relative Vmax [9]: 0 |
| C[C@H](OP(=O)(O)OP(=O)(O)O)[C@H]1OC(n2cnc3c(N)ncnc32)[C@H](O)[C@@H]1O (some centres undefined) | 0.74 | 0.23 | 0.83 | 0.19 | 15 | 15 | 26 |  |
